Test results: US8648066B2 (Exelixis, Inc., priority 2009, dated 2014)

Target: mTOR/GbL/Raptor (mTORC1) (Homo sapiens, UniProt P42345)
Test: mTOR/GbL/Raptor (mTORC1) ELISA assay
Type: biochemical
Conditions: phosphorylation of 4E-BP1; 0.2 nM mTORC1, 10 μM ATP; read-out: IC50 in this assay (mTORC1 ELISA)
Summary of the method: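 Human mTORC1 (0.2 nM) phosphorylated 50 nM His-tagged 4E-BP1 with 10 µM ATP in HEPES pH 7.2 containing 10 mM MnCl2, 120 min at ambient temperature. Substrate was captured on Ni-chelate plates; phospho-4E-BP1 was detected by primary antibody and HRP secondary with luminescence.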

IC50 | SMILES
≤ 10 nM | Cc1nc2cc(-c3ccc4c(c3)CN(c3nc([C@H]5CCCN5)nc5c3CC(C)(C)CC5)CCO4)cnc2[nH]1 [Example 506, 4-{6,6-dimethyl-2-[(2R)-pyrrolidin-2-yl]-5,6,7,8-tetrahydroquinazolin-4-yl]-7-(2-methyl-3H-imidazo[4,5-b]pyridin-6-yl)-2,3,4,5-tetrahydro-1,4-benzoxazepine]
50 to 250 nM | Nc1nc2ccc(-c3ccc4c(c3)CN(c3nc(-c5ccccc5)nc5ccccc35)CCO4)cc2[nH]1 [Example 233, 6-[4-(2-phenylquinazolin-4-yl)-2,3,4,5-tetrahydro-1,4-benzoxazepin-7-yl]-1H-benzimidazol-2-amine]
250 to 1000 nM | Cc1nc(N2CCOc3ccc(-c4ccc(N)nc4)cc3C2)c2ccccc2n1 [Example 266, 5-[4-(2-methylquinazolin-4-yl)-2,3,4,5-tetrahydro-1,4-benzoxazepin-7-yl]pyridin-2-amine]
250 to 1000 nM | COc1c(O)ccc2c(N3CCOc4ccc(-c5ccc6nc(C)[nH]c6c5)cc4C3)ncnc12 [Example 164, 4-[7-(2-methyl-1H-benzimidazol-6-yl)-2,3-dihydro-1,4-benzoxazepin-4-(5H)-yl]-8-(methyloxy)quinazolin-7-ol]
≤ 10 nM | Cc1nc(C)c(C(C)C)c(N2CCOc3ccc(-c4cnc5nc(C)[nH]c5c4)cc3C2)n1 [Example 491, 4-[2,6-dimethyl-5-(1-methylethyl)pyrimidin-4-yl]-7-(2-methyl-1H-imidazo[4,5-b]pyridin-6-yl)-2,3,4,5-tetrahydro-1,4-benzoxazepine]
50 to 250 nM | CN1CC[C@H](CNS(=O)(=O)c2cc(-c3ccc4c(c3)CN(c3ncnc5c3CC(C)(C)CC5)CCO4)cnc2N)C1 [Example 394, 2-amino-5-[4-(6,6-dimethyl-5,6,7,8-tetrahydroquinazolin-4-yl)-2,3,4,5-tetrahydro-1,4-benzoxazepin-7-yl]-N-{[(3S)-1-methylpyrrolidin-3-yl]methyl}pyridine-3-sulfonamide]
≥ 2000 nM | COc1ccc2c(N3CCOc4ccc(-c5cccc(C(=O)O)c5)cc4C3)nc(C)nc2c1 [Example 456, 3-{4-[2-methyl-7-(methyloxy)quinazolin-4-yl]-2,3,4,5-tetrahydro-1,4-benzoxazepin-7-yl}benzoic acid]
10 to 50 nM | Cc1nc2ccc(-c3ccc4c(c3)CN(c3nc(CN(C)C)nc5c3CC(C)(C)CC5)CCO4)cc2[nH]1 [Example 351, 1-{6,6-dimethyl-4-[7-(2-methyl-1H-benzimidazol-6-yl)-2,3-dihydro-1,4-benzoxazepin-4(5H)-yl]-5,6,7,8-tetrahydroquinazolin-2-yl}-N,N-dimethylmethanamine]
≤ 10 nM | Cc1nc2ccc(-c3ccc4c(c3)CN(c3ncnc(C)c3Cc3ccc(Cl)c(N(C)C)c3)CCO4)cc2[nH]1 [Example 93, 2-chloro-N,N-dimethyl-5-({4-methyl-6-[7-(2-methyl-1H-benzimidazol-6-yl)-2,3-dihydro-1,4-benzoxazepin-4(5H)-yl]pyrimidin-5-yl}methyl)aniline]
250 to 1000 nM | COc1ccc2c(N3CCOc4ccc(-c5ccc(N)nc5)cc4C3)nc(C)nc2c1 [Example 273, 5-{4-[2-methyl-7-(methyloxy)quinazolin-4-yl]-2,3,4,5-tetrahydro-1,4-benzoxazepin-7-yl}pyridin-2-amine]
10 to 50 nM | CC1(C)CCc2ncnc(N3CCOc4ccc(-c5cnc(N)c(S(=O)(=O)N6CC(O)(CO)C6)c5)cc4C3)c2C1 [Example 314, 1-({2-amino-5-[4-(6,6-dimethyl-5,6,7,8-tetrahydroquinazolin-4-yl)-2,3,4,5-tetrahydro-1,4-benbzoxazepin-7-yl]pyridin-3-yl}sulfonyl)-3-(hydroxymethyl)azetidin-3-ol]
250 to 1000 nM | Cc1nc2ccc(-c3ccc4c(c3)CN(c3ncnc5ccc(S(C)(=O)=O)cc35)CCO4)cc2[nH]1 [Example 50, 7-(2-methyl-1H-benzimidazol-6-yl)-4-[6-(methylsulfonyl)quinazolin-4-yl]-2,3,4,5-tetrahydro-1,4-benzoxazepine]
250 to 1000 nM | Cc1nc2ccc(-c3ccc4c(c3)CN(c3ccnc(N)n3)CCO4)cc2[nH]1 [Example 96, 4-[7-(2-methyl-1H-benzimidazol-6-yl)-2,3-dihydro-1,4-benzoxazepin-4(5H)-yl]pyrimidin-2-amine]
250 to 1000 nM | Cc1nc2ncc(-c3ccc4c(c3)CN(c3ncnc(NC(C)C)c3C)CCO4)cc2[nH]1 [Example 525, 5-methyl-N-(1-methylethyl)-6-[7-(2-methyl-1H-imidazo[4,5-b]pyridin-6-yl)-2,3-dihydro-1,4-benzoxazepin-4(5H)-yl]pyrimidin-4-amine]
10 to 50 nM | CCOC(=O)Nc1nc2ncc(-c3ccc4c(c3)CN(c3ncnc5c3CC(C)(C)CC5)CCO4)cc2[nH]1 [Example 576, ethyl {6-[4-(6,6-dimethyl-5,6,7,8-tetrahydroquinazolin-4-yl)-2,3,4,5-tetrahydro-1,4-benzoxazepin-7-yl]-1H-imidazo[4,5-b]pyridin-2-yl}carbamate]
≤ 10 nM | CCc1ncnc(N2CCOc3ccc(-c4ccc5nc(C)[nH]c5c4)cc3C2)c1Cc1ccccc1 [Example 70, 4-[6-ethyl-5-(phenylmethyl)pyrimidin-4-yl]-7-(2-methyl-1H-benzimidazol-6-yl)-2,3,4,5-tetrahydro-1,4-benzoxazepine]
50 to 250 nM | CC1(C)CCc2ncnc(N3CCOc4ccc(-c5cnc(N)c(S(=O)(=O)N6CCC(O)CC6)c5)cc4C3)c2C1 [Example 317, 1-({2-amino-5-[4-(6,6-dimethyl-5,6,7,8-tetrahydroquinazolin-4-yl)-2,3,4,5-tetrahydro-1,4-benzoxazepin-7-yl]pyridin-3-yl}sulfonyl)piperidin-4-ol]
250 to 1000 nM | c1ccc2c(N3CCOc4ccc(-c5ccc6nc(C7CCCCN7)[nH]c6c5)cc4C3)ccnc2c1 (centres unmarked) [Example 202, 7-(2-piperidin-2-yl-1H-benzimidazol-6-yl)-4-quinolin-4-yl-2,3,4,5-tetrahydro-1,4-benzoxazepine]
10 to 50 nM | Cc1nc2c(c(N3CCOc4ccc(-c5cnc6nc(C)[nH]c6c5)cc4C3)n1)CC(C)CC2 (centres unmarked) [Example 460, 4-(2,6-dimethyl-5,6,7,8-tetrahydroquinazolin-4-yl)-7-(2-methyl-1H-imidazo[4,5-b]pyridin-6-yl)-2,3,4,5-tetrahydro-1,4-benzoxazepine]
10 to 50 nM | C[C@@H](CO)CS(=O)(=O)c1cc(-c2ccc3c(c2)CN(c2ncnc4c2CC(C)(C)CC4)CCO3)cnc1N [Example 301, (2S)-3-({2-amino-5-[4-(6,6-dimethyl-5,6,7,8-tetrahydroquinazolin-4-yl)-2,3,4,5-tetrahydro-1,4-benzoxazepin-7-yl]pyridin-3-yl}sulfonyl)-2-methylpropan-1-ol]
50 to 250 nM | CC1=CC(C)(C)Cc2c1ncnc2N1CCOc2ccc(-c3cnc(N)c(S(=O)(=O)N[C@@H]4CCN(C)C4)c3)cc2C1 [Example 422, 2-amino-N-[(3R)-1-methylpyrrolidin-3-yl]-5-[4-(6,6,8-trimethyl-5,6-dihydroquinazolin-4-yl)-2,3,4,5-tetrahydro-1,4-benzoxazepin-7-yl]pyridine-3-sulfonamide]
≤ 10 nM | CC1=CC(C)(C)Cc2c1ncnc2N1CCOc2ccc(-c3cnc4nc(C)[nH]c4c3)cc2C1 [Example 554, 7-(2-methyl-1H-imidazo[4,5-b]pyridin-6-yl)-4-(6,6,8-trimethyl-5,6-dihydroquinazolin-4-yl)-2,3,4,5-tetrahydro-1,4-benzoxazepine]
10 to 50 nM | CN(C)Cc1nc2c(c(N3CCOc4ccc(-c5ccc6[nH]c(CF)nc6c5)cc4C3)n1)CC(C)(C)CC2 [Example 322]
≤ 10 nM | Cc1nc2ncc(-c3ccc4c(c3)CN(c3nc(CO)nc5c3CC(C)(C)CC5)CCO4)cc2[nH]1 [Example 312, {6,6-dimethyl-4-[7-(2-methyl-1H-imidazo[4,5-b]pyridin-6-yl)-2,3-dihydro-1,4-benzoxazepin-4(5H)-yl]-5,6,7,8-tetrahydroquinazolin-2-yl}methanol]
10 to 50 nM | CC1(C)CCc2ncnc(N3CCOc4ccc(-c5cnc(N)c(S(=O)(=O)CC(O)CO)c5)cc4C3)c2C1 (centres unmarked) [Example 431, 3-({2-amino-5-[4-(6,6-dimethyl-5,6,7,8-tetrahydroquinazolin-4-yl)-2,3,4,5-tetrahydro-1,4-benzoxazepin-7-yl]pyridin-3-yl}sulfonyl)propane-1,2-diol]
250 to 1000 nM | Cc1c(NC2CCOCC2)ncnc1N1CCOc2ccc(-c3cnc4nc(C5CC5)[nH]c4c3)cc2C1 [Example 532, 6-[7-(2-cyclopropyl-1H-imidazo[4,5-b]pyridin-6-yl)-2,3-dihydro-1,4-benzoxazepin-4(5H)-yl]-5-methyl-N-(tetrahydro-2H-pyran-4-yl)pyrimidin-4-amine]
≤ 10 nM | Cc1nc2cc(-c3ccc4c(c3)CN(c3nc(CN5CCCC5)nc5c3CC(C)(C)CC5)CCO4)cnc2[nH]1 [Example 501, 4-[6,6-dimethyl-2-(pyrrolidin-1-ylmethyl)-5,6,7,8-tetrahydroquinazolin-4-yl]-7-(2-methyl-3H-imidazo[4,5-b]pyridin-6-yl)-2,3,4,5-tetrahydro-1,4-benzoxazepine]
≤ 10 nM | Cc1nc2ncc(-c3ccc4c(c3)CN(c3ncnc(C)c3C(C)C)CCO4)cc2[nH]1 [Example 564, 7-(2-methyl-1H-imidazo[4,5-b]pyridin-6-yl)-4-[6-methyl-5-(1-methylethyl)pyrimidin-4-yl]-2,3,4,5-tetrahydro-1,4-benzoxazepine]
≤ 10 nM | Cc1nc2ncc(-c3ccc4c(c3)CN(c3ncnc5c3CC(C)CC5)CCO4)cc2[nH]1 (centres unmarked) [Example 555, 7-(2-methyl-1H-imidazo[4,5-b]pyridin-6-yl)-4-(6-methyl-5,6,7,8-tetrahydroquinazolin-4-yl)-2,3,4,5-tetrahydro-1,4-benzoxazepine]
